Assay results taken from patent US7629376B2, “3-substituted-5- and 6-aminoalkyl indole-2-carboxylic acid amides and related analogs as inhibitors of casein kinase I” (Aventis Pharmaceuticals Inc., priority 2004, dated 2009).

These compounds were tested against T1, casein kinase 1ε (Homo sapiens, UniProt P49674) (assay: Casein Kinase Epsilon 33P-ATP Filter Plate Assay for Screening CK1ε Inhibitors). Conditions: not given.
T1 construct: made in house
Type: biochemical

T1 sequence (P49674 whole entry): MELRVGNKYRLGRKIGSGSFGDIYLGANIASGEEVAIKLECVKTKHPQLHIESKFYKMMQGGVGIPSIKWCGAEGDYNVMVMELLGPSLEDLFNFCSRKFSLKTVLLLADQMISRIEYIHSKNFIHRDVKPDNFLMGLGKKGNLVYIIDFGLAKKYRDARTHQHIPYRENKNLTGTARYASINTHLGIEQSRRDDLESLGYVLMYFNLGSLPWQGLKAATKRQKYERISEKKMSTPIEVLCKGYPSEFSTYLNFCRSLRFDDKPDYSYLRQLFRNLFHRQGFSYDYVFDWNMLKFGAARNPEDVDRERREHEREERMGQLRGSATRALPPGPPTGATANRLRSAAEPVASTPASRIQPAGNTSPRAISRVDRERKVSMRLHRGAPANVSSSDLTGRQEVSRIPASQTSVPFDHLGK

| Compound | Ki |
| --- | --- |
| CC(C)(C)OC(=O)N1CCCN(Cc2ccc3[nH]c(C(N)=O)c(Sc4ccccc4)c3c2)CC1 [Ir, 4-(2-Carbamoyl-3-phenylsulfanyl-1H-indol-5-ylmethyl)-[1,4]diazepane-1-carboxylic acid tert-butyl ester] | 130 nM |
| NC(=O)c1[nH]c2ccc(CN3CCN(CC=Cc4ccccc4)CC3)cc2c1Sc1ccccc1 [Iq, 5-[4-(3-Phenylpropenyl)piperazin-1-ylmethyl]-3-phenylsulfanyl-1H-indole-2-carboxylic acid amide] | 310 nM |
| NC(=O)c1[nH]c2cc(CNCc3cc(Cl)cc(Cl)c3O)ccc2c1Sc1ccccc1 [IIah, 6-[(3,5-Dichloro-2-hydroxybenzylamino)methyl]-3-phenylsulfanyl-1H-indole-2-carboxylic acid amide] | 3500 nM |
| NC(=O)c1[nH]c2cc(CNCc3c(F)cccc3C(F)(F)F)ccc2c1Sc1ccccc1 [IIap, 6-[(2-Fluoro-6-trifluoromethylbenzylamino)methyl]-3-phenylsulfanyl-1H-indole-2-carboxylic acid amide] | > 10000 nM |
| CCCCCNCc1ccc2[nH]c(C(N)=O)c(Sc3ccccc3)c2c1 [Im, 5-Pentylaminomethyl-3-phenylsulfanyl-1H-indole-2-carboxylic acid amide] | 64 nM |
| CN(C)c1ccc(CNCc2ccc3c(Sc4ccccc4)c(C(N)=O)[nH]c3c2)cc1 [IIe, 6-[(4-Dimethylaminobenzylamino)methyl]-3-phenylsulfanyl-1H-indole-2-carboxylic acid amide] | 730 nM |
| Cc1ccccc1CNCc1ccc2c(Sc3ccccc3)c(C(N)=O)[nH]c2c1 [IIz, 6-[(2-Methylbenzylamino)methyl]-3-phenylsulfanyl-1H-indole-2-carboxylic acid amide] | 570 nM |
| NC(=O)c1[nH]c2ccc(CN3CCC4(CC3)OCCO4)cc2c1Sc1ccccc1 [Iz, 5-(1,4-Dioxa-8-aza-spiro[4,5]dec-8-ylmethyl)-3-phenylsulfanyl-1H-indole-2-carboxylic acid amide] | 320 nM |
| CCCNCc1ccc2[nH]c(C(N)=O)c(Sc3ccccc3)c2c1 [Iae, 3-Phenylsulfanyl-5-propylaminomethyl-1H-indole-2-carboxylic acid amide] | 580 nM |
| NC(=O)c1[nH]c2cc(CN(C/C=C/c3ccco3)C/C=C/c3ccco3)ccc2c1Sc1ccccc1 [IIag] | 6920 nM |
| COc1ccc(CNCc2ccc3c(Sc4ccccc4)c(C(N)=O)[nH]c3c2)cc1 [IIg, 6-[(4-Methoxybenzylamino)methyl]-3-phenylsulfanyl-1H-indole-2-carboxylic acid amide] | 520 nM |
| NC(=O)c1[nH]c2cc(CNCc3ccc(C=Cc4ccccc4)cc3)ccc2c1Sc1ccccc1 [IIao, 3-Phenylsulfanyl-6-[(4-styrylbenzylamino)methyl]-1H-indole-2-carboxylic acid amide] | > 10000 nM |
| NC(=O)c1[nH]c2cc(CNCC=C(c3ccccc3)c3ccccc3)ccc2c1Sc1ccccc1 [IIan] | > 10000 nM |
| NC(=O)c1[nH]c2ccc(CNc3cccc(C(F)(F)F)c3)cc2c1Sc1ccccc1 [Iac, 3-Phenylsulfanyl-5-[(3-trifluoromethyl-phenylamino)methyl]-1H-indole-2-carboxylic acid amide] | ~10000 nM |
| COc1ccc(CNCc2ccc3c(Sc4ccccc4)c(C(N)=O)[nH]c3c2)cc1OCc1ccccc1 [IIak, 6-[(3-Benzyloxy-4-methoxybenzylamino)methyl]-3-phenylsulfanyl-1H-indole-2-carboxylic acid amide] | 640 nM |
| NC(=O)c1[nH]c2cc(CNCc3ccc(-c4ccccc4)cc3)ccc2c1Sc1ccccc1 [IIj, 6-{[(Biphenyl-4-ylmethyl)amino]methyl}-3-phenylsulfanyl-1H-indole-2-carboxylic acid amide] | 1390 nM |
| COc1cc(CNCc2ccc3c(Sc4ccccc4)c(C(N)=O)[nH]c3c2)cc(Br)c1OC [IIai, 6-[(3-Bromo-4,5-dimethoxybenzylamino)methyl]-3-phenylsulfanyl-1H-indole-2-carboxylic acid amide] | 600 nM |
| NC(=O)c1[nH]c2cc(CNCc3cccn3S(=O)(=O)c3ccccc3)ccc2c1Sc1ccccc1 [IIas, 6-{[(1-Benzenesulfonyl-1H-pyrrol-2-ylmethyl)amino]methyl}-3-phenylsulfanyl-1H-indole-2-carboxylic acid amide] | 6250 nM |
| NC(=O)c1[nH]c2cc(CNCc3c4ccccc4c(Cl)c4ccccc34)ccc2c1Sc1ccccc1 [IIaf, 6-{[(10-Chloro-anthracen-9-ylmethyl)amino]methyl}-3-phenylsulfanyl-1H-indole-2-carboxylic acid amide] | 4830 nM |
| COc1cc(CNCc2ccc3c(Sc4ccccc4)c(C(N)=O)[nH]c3c2)ccc1OCc1ccccc1 [IIaj, 6-[(4-Benzyloxy-3-methoxybenzylamino)methyl]-3-phenylsulfanyl-1H-indole-2-carboxylic acid amide] | 2100 nM |
| NC(=O)c1[nH]c2ccc(CN3CCN(c4ccc(F)cc4)CC3)cc2c1Sc1ccccc1 [Iaa, 5-[4-(4-Fluorophenyl)piperazin-1-ylmethyl]-3-phenylsulfanyl-1H-indole-2-carboxylic acid amide] | > 10000 nM |
| NC(=O)c1[nH]c2ccc(CN3CCC(CO)CC3)cc2c1Sc1ccccc1 [Ih, 5-(4-Hydroxymethylpiperidin-1-ylmethyl)-3-phenylsulfanyl-1H-indole-2-carboxylic acid amide] | 1740 nM |
| NC(=O)c1[nH]c2ccc(CNCc3ccccc3)cc2c1Sc1ccccc1 [If, 5-(Benzylaminomethyl)-3-phenylsulfanyl-1H-indole-2-carboxylic acid amide] | 710 nM |
| NC(=O)c1[nH]c2ccc(CN3CCCC(C(N)=O)C3)cc2c1Sc1ccccc1 (stereo not drawn) [Io, 5-(3-Carbamoylpiperidin-1-ylmethyl)-3-phenylsulfanyl-1H-indole-2-carboxylic acid amide] | ~10000 nM |
| NC(=O)c1[nH]c2ccc(CN3CCCCC3)cc2c1Sc1ccccc1 [Il, 3-Phenylsulfanyl-5-piperidin-1ylmethyl-1H-indole-2-carboxylic acid amide] | 880 nM |

Other lines, results leading:

| Ki | Compound |
| --- | --- |
| 470 nM | NC(=O)c1[nH]c2cc(CNCc3ccc([N+](=O)[O-])cc3)ccc2c1Sc1ccccc1 [IId, 6-[(4-Nitrobenzylamino)methyl]-3-phenylsulfanyl-1H-indole-2-carboxylic acid amide] |
| 460 nM | Cc1cccc(CNCc2ccc3c(Sc4ccccc4)c(C(N)=O)[nH]c3c2)c1 [IIaa, 6-[(3-Methylbenzylamino)methyl]-3-phenylsulfanyl-1H-indole-2-carboxylic acid amide] |
| 380 nM | COc1cccc(CNCc2ccc3c(Sc4ccccc4)c(C(N)=O)[nH]c3c2)c1 [IIy, 6-[(3-Methoxybenzylamino)methyl]-3-phenylsulfanyl-1H-indole-2-carboxylic acid amide] |
| 360 nM | CC(CO)(CO)NCc1ccc2[nH]c(C(N)=O)c(Sc3ccccc3)c2c1 [Iv, 5-[(2-Hydroxy-1-hydroxymethyl-1-methyl-ethylamino)methyl]-3-phenylsulfanyl-1H-indole-2-carboxylic acid amide] |
| 270 nM | NC(=O)CC[C@H](N)C(=O)NCc1ccc2c(Sc3ccccc3)c(C(N)=O)[nH]c2c1 [IIr, 2-Aminopentanedioic acid 5-amide 1-[(2-carbamoyl-3-phenylsulfanyl-1H-indol-6-ylmethyl)-amide]] |
| 240 nM | NC(=O)c1[nH]c2ccc(CN3CCOCC3)cc2c1Sc1ccccc1 [Ii, 5-Morpholin-4-ylmethyl-3-phenylsulfanyl-1H-indole-2-carboxylic acid amide] |
| 200 nM | CCCNCc1ccc2[nH]c(C(N)=O)c(Sc3ccccc3)c2c1 [Ij, 3-Phenylsulfanyl-5-propylaminomethyl-1H-indole-2-carboxylic acid amide] |
| 170 nM | CC(N)C(=O)NCc1ccc2c(Sc3ccccc3)c(C(N)=O)[nH]c2c1 (stereo not drawn) [IIo, 6-[(2-Aminopropionylamino)methyl]-3-phenylsulfanyl-1H-indole-2-carboxylic acid amide] |
| 150 nM | CCC(C)C(N)C(=O)NCc1ccc2c(Sc3ccccc3)c(C(N)=O)[nH]c2c1 (stereo not drawn) [IIq, 6-[(2-Amino-3-methylpentanoylamino)methyl]-3-phenylsulfanyl-1H-indole-2-carboxylic acid amide] |
| 100 nM | NC(=O)c1[nH]c2cc(CNC(=O)[C@@H](N)Cc3c[nH]c4ccccc34)ccc2c1Sc1ccccc1 [IIs] |
| 97 nM | NCc1ccc2c(Sc3ccccc3)c(C(N)=O)[nH]c2c1 [IIa, 6-Aminomethyl-3-phenylsulfanyl-1H-indole-2-carboxylic acid amide] |
| 65 nM | NC(=O)c1[nH]c2ccc(CN3CCCC3CO)cc2c1Sc1ccccc1 (stereo not drawn) [Iw, 5-(2-Hydroxymethyl-pyrrolidin-1-ylmethyl)-3-phenylsulfanyl-1H-indole-2-carboxylic acid amide] |

The compounds below were run on Mper1-luc Rat-1 fibroblasts (P2C4) (assay: Cellular Circadian Assay (Mper1-luc reporter period lengthening)). Conditions: effective micromolar concentration that induces a 1 hour lengthening of period.
Type: cell-based
Method: Cellular Circadian Assay Experimental Procedures
Stable transfection: Co-transfect Rat-1 fibroblast cultures at 30-50% confluence with vectors containing the Zeocin resistance selectable marker for stable transfection and an mPer1 promoter-driven luciferase reporter gene. After 24-48 hours, split the cultures onto 96 well plates and maintain in growth media supplemented with 50-100 μg/mL Zeocin (Invitrogen #45-0430) for 10-14 days. Assess Zeocin-resistant stable transfectants for reporter expression by supplementing growth media with 100 μM luciferin (Promega #E1603) and assaying luciferase activity on a TopCount scintillation counter (Packard Model #C384V00). […] Select Mper1-luc Rat-1 fibroblasts clone P2C4 for compound testing.
After synchronization, rinse cultures with 100 μL EMEM (Cellgro #10-010-CV) for 10 minutes at room temperature. […] Add compounds to be tested for circadian effects to CO2-independent media in 0.3% DMSO (final concentration).
Estimate in vivo luciferase activity by measuring relative light output on a TopCount scintillation counter (Packard Model #C384V00). Transfer plates from incubator to reader using an ORCA robotic arm (Beckman Instruments) and SAMI-NT automated scheduling software (Version 3.3; SAGIAN/Beckman Instruments).
Data Analysis Use Microsoft Excel and XLfit (Version 2.0.9; IDBS) to import, manipulate and graph data. Perform period analysis either by determining the interval between relative light output minima over several days or by Fourier Transform. […] Analyze the data by fitting a hyperbolic curve to the data expressed as period change (y-axis) versus the concentration of test compound (x-axis) in XLfit and interpolate the EC ? t+1h from this curve.

| Compound | Cell Assay ECΔτ1h |
| --- | --- |
| CC(C)(C)OC(=O)N1CCCN(Cc2ccc3[nH]c(C(N)=O)c(Sc4ccccc4)c3c2)CC1 [Ir, 4-(2-Carbamoyl-3-phenylsulfanyl-1H-indol-5-ylmethyl)-[1,4]diazepane-1-carboxylic acid tert-butyl ester] | >10 µM |
| NC(=O)c1[nH]c2ccc(CN3CCN(CC=Cc4ccccc4)CC3)cc2c1Sc1ccccc1 [Iq, 5-[4-(3-Phenylpropenyl)piperazin-1-ylmethyl]-3-phenylsulfanyl-1H-indole-2-carboxylic acid amide] | >3 µM |
| 3-(3-Fluorophenylsulfanyl)-5-methylaminomethyl-1H-indole-2-carboxylic acid amide [Ie] | 3.34 µM |
| CCCCCNCc1ccc2[nH]c(C(N)=O)c(Sc3ccccc3)c2c1 [Im, 5-Pentylaminomethyl-3-phenylsulfanyl-1H-indole-2-carboxylic acid amide] | 4.55 µM |
| 3-(3-Chlorophenylsulfanyl)-5-methylaminomethyl-1H-indole-2-carboxylic acid amide | 5.67 µM |
